Results reported in ChEMBL document CHEMBL1132746, “Biologically active oligodeoxyribonucleotides. Part 12: N2-methylation of 2'-deoxyguanosines enhances stability of parallel G-quadruplex and anti-HIV-1 activity” (Bioorg Med Chem Lett, 2000).

Assays:
Conditions in all cases: Homo sapiens
MT4 [1] = test: Tested for cytopathic effect of compound for MT-4 cells infected with HIV-1 IIIb strain relative to R-95288 (1); format: functional, cell-based
MT4 [2] = test: Concentration required to show cytotoxicity for MT-4 cells infected with HIV-1 IIIb strain; format: functional
MT4 [3] = test: Tested for cytopathic effect of compound for MT-4 cells infected with HIV-1 IIIb strain; format: functional, cell-based

| SMILES | IC50 (MT4 [1]) [µM] | CC50 (MT4 [2]) [µM] | IC50 (MT4 [3]) [µM] |
| --- | --- | --- | --- |
| Cc1cn([C@H]2C[C@H](OP(=O)(O)O[C@H]3O[C@@H](n4cnc5c(O)nc(N)nc54)C[C@@H]3OP(=O)(O)OC[C@H]3O[C@@H](n4cnc5c(O)nc(N)nc54)C[C@@H]3OP(=O)(O)OC[C@H]3O[C@@H](n4cnc5c(O)nc(N)nc54)C[C@@H]3OP(=O)(O)O)[C@@H](COCc3ccc(OCc4ccccc4)c(OCc4ccccc4)c3)O2)c(=O)[nH]c1=O | 43 | > 40 | – |
| Cc1cn([C@H]2C[C@H](OP(=O)(O)O[C@H]3O[C@@H](n4cnc5c(=O)[nH]c(N)nc54)C[C@@H]3OP(=O)(O)OC[C@H]3O[C@@H](n4cnc5c(=O)[nH]c(N)nc54)C[C@@H]3OP(=O)(O)OC[C@H]3O[C@@H](n4cnc5c(=O)[nH]c(N)nc54)C[C@@H]3OP(=O)(O)OC[C@H]3O[C@@H](n4cnc5c4N=CNC5N)C[C@@H]3OP(=O)(O)OC[C@H]3O[C@@H](n4cnc5c(=O)[nH]c(N)nc54)C[C@@H]3OP(=O)(O)OCCO)[C@@H](COCc3ccc(OCc4ccccc4)c(OCc4ccccc4)c3)O2)c(=O)[nH]c1=O (some centres undefined) | – | > 40 | 1 |
